Reference: US20040204577A1, “Novel peptide-forming enzyme gene” (Ajinomoto Co., Inc., priority 2003, published 2004)
Where a SMILES comes first, the peptide text is derived from it. [ ]: non-standard residue; d: D form. The star is where a group is joined. 2Nal = N[C@@H](Cc1ccc2ccccc2c1)C(=O)O; Cha = N[C@@H](CC1CCCCC1)C(=O)O; Tle = CC(C)(C)[C@H](N)C(=O)O; Boc = CC(C)(C)OC(=O)*; tBu = CC(C)(C)*

Experiments:
Format in all cases: biochemical, Empedobacter brevis
[1] = tested on: peptide-forming enzyme (Mono S fraction enzyme); experiment: Enzyme substrate specificity (1)-(10), (13), (14): peptide production; parameters: key: +: those peptides for which production was confirmed but which were unable to be quantified due to the absence of a standard; a trace amount; details: 0.1 unit enzyme, 25° C.
Protocol: (§1) Ester specificity was examined in the case of using L-amino acid ester for the carboxy component. 2 μl of the same enzyme fraction as used in Example 5 was added to 100 μl of 100 mM borate buffer (pH 9.0) containing the carboxy components indicated in Table 4 at 100 mM, 200 mM L-glutamine and 10 mM EDTA, and allowed to react at 25° C. for 2 hours. HCl represents hydrochloride in Table 4.
(§2) Peptide production was examined in the case of using L-alanine methyl ester for the carboxy component and using various L-amino acids for the amine component.
(§3) Peptide production was examined in the case of using various types of L-amino acid methyl esters for the carboxy component and using L-glutamine for the amine component. 2 μl of the same enzyme fraction as used in Example 5 was added to 100 μl of 100 mM borate buffer (pH 9.0) containing the L-amino acid methyl ester hydrochloride salts (AA-OMe.HCl) shown in Table 6 at 100 mM, 150 mM L-glutamine and 10 mM EDTA, and allowed to react at 25° C. for 3 hours. […] Furthermore, Tween-80 was added to the reaction system to a final concentration of 0.1% in the case of using L-Trp-OMe and L-Tyr-OMe.
(§4) Peptide production was examined in the case of using various L-amino acid methyl esters for the carboxy component and various L-amino acids for the amine component. 2 μl of the same enzyme fraction as used in Example 5 was added to 100 μl of 100 mM borate buffer (pH 9.0) containing the L-amino acid methyl ester hydrochloride salts (AA-OMe.HCl) shown in Table 7 at 100 mM, the L-amino acids shown in Table 7 at 150 mM and 10 mM EDTA, and allowed to react at 25° C. for 3 hours. The “tr” indicates a trace amount. Furthermore, Tween-80 was added to the reaction system to a final concentration of 0.1% in the case of using L-Trp-OMe.
Peptide production was examined in the case of using the L or D forms of various amino acid methyl esters for the carboxy component, and the L or D forms of various amino acids for the amine component. 2 μl of the same enzyme fraction as used in Example 5 was added to 100 μl of 100 mM borate buffer (pH 9.0) containing the various amino acid methyl ester hydrochloride salts (AA-OMe HCl) shown in Table 8 at 100 mM, the various amino acids shown in Table 8 at 150 mM and 10 mM EDTA, and allowed to react at 25° C. for 3 hours. The “tr” indicates a trace amount.
Peptide production was examined using various L-amino acid amides for the carboxy component, and various L-amino acids for the amine component. 2 μl of the same enzyme fraction as that used in Example 5 was added to 100 μl of 100 mM borate buffer (pH 9.0) containing the L-amino acid amide hydrochloride salt (M-NH2.HCl) shown in Table 9 at 100 mM, the L-amino acids shown in Table 9 at 150 mM and 10 mM EDTA, and allowed to react at 25° C. for 3 hours.
Peptide production was examined in the case of using various L-alanine methyl esters for the carboxy component and C-protected L-amino acids for the amine component. 2 μl of the same enzyme fraction as used in Example 5 was added to 100 μl of 100 mM borate buffer (pH 9.0) containing the L-alanine methyl ester hydrochloride hydrochloride salt (Ala-OMe.HCl) shown in Table 10 at 100 mM, the L-amino acid amide hydrochloride salts shown in Table 10 at 150 mM and 10 mM EDTA, and allowed to react at 25° C. for 3 hours.
Peptide production was examined in the case of using various amino acid methyl esters for the carboxy component and methylamine for the amine component. 2 μl of the same enzyme fraction as used in Example 5 was added to 100 μl of 100 mM borate buffer (pH 9.0) containing the amino acid methyl ester hydrochloride salt (M-OMe.HCl) shown in Table 11 at 100 mM, the methylamine shown in Table 11 at 150 mM and 10 mM EDTA, and allowed to react at 25° C. for 3 hours.
Peptide production was examined in the case of using […] for the carboxy component or β-amino acid for the amine component.

[2] = tested on: peptide-forming enzyme (Mono S fraction enzyme); experiment: as above; parameters: key: +: those for which production was confirmed but which were unable to be quantified due to the absence of a standard; a trace amount; details: 0.1 unit enzyme, 25° C.
Protocol: as §1, §2, §3, §4
Peptide production was examined in the case of using the L or D forms of various amino acid methyl esters for the carboxy component, and the L or D forms of various amino acids for the amine component. […]

[3] = tested on: peptide-forming enzyme (Mono S fraction enzyme); experiment: Production of L-alanyl-L-glutamine from L-alanine methyl ester and L-glutamine with enzyme fraction; details: 100 mM L-alanine methyl ester hydrochloride, 200 mM L-glutamine, 10 mM EDTA, pH 9.0, 18° C.; FIG. 3
Protocol: On the other hand, there was hardly any production of L-Ala-L-Gln observed in an enzyme-non-added lot, and the […] was only about 0.07 mM after reacting for 120 minutes.

[4] = tested on: peptide-forming enzyme (Mono S fraction enzyme); experiment: Enzyme substrate specificity (1)-(10), (13), (14): peptide production; details: L-amino acid ester 100 mM, peptide (amine component) 150 mM, pH 9.0, 25° C., 3 hours
Outline: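 Mono S enzyme fraction in 100 mM borate buffer (pH 9.0) with 10 mM EDTA and 100 mM carboxy component (amino acid methyl esters or amides); amine components (L-glutamine, amino acids, amino acid amides or methylamine) at 150 mM, or 200 mM L-glutamine with varied esters. Reactions ran at 25° C for 2–3 hours; 0.1% Tween-80 added for Trp/Tyr-OMe.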

[5] = carboxy component 40 mM, amine component 40 mM, reaction time 3 hr
[6] = carboxy component 100 mM, amine component 150 mM, reaction time 2 hr
[7] = carboxy component 100 mM, amine component 150 mM, reaction time 3 hr

`NC(=O)CC[C@H](NC(=O)[C@@H](N)Cc1ccc2ccccc2c1)C(=O)O` [H-2-Nal-H-Gln-OH] (H-[2Nal]-Gln-OH) was tested, and the Produced peptide [1, 5] was “tr”.
`C[C@H](N)C(=O)N[C@@H](Cc1ccc2ccccc2c1)C(=O)O` [H-Ala-2-Nal-OH] (H-Ala-[2Nal]-OH) was tested, and the Produced peptide ([2]; carboxy component 20 mM, amine component 20 mM, reaction time 3 hr) was “+”.
With `N[C@@H](CC1CCCCC1)C(=O)N[C@@H](Cc1ccccc1)C(=O)O` [H-CHA-Phe-OH] (H-[Cha]-Phe-OH) the Produced peptide [2, 5] was “+”.
`NC(=O)CC[C@H](NC(=O)[C@@H](N)Cc1ccc(Cl)cc1)C(=O)O` [H-Cl-F-Phe-H-Gln-OH] was tested, and the Produced peptide ([1]; carboxy component 25 mM, amine component 50 mM, reaction time 3 hr) was “tr”.
`CC(C)(C)OC(=O)NCCCC[C@H](N)C(=O)N[C@@H](CCC(N)=O)C(=O)O` [H-Lys(Boc)-Gln-OH] (H-Lys(Boc)-Gln-OH) was tested, and the Produced peptide [2, 6] was “+”.
`CN[C@@H](C)C(=O)N[C@@H](Cc1ccccc1)C(=O)O` [H-N-Me-Ala-Phe-OH] was tested, and the Produced peptide [1, 7] was “tr”.
`CC(C)(C)OC[C@H](N)C(=O)N[C@@H](CCC(N)=O)C(=O)O` [H-Ser(tBu)-Gln-OH] (H-Ser(tBu)-Gln-OH) was tested, and the Produced peptide [1, 6] was “tr”.
In the case of `NC(=O)CC[C@H](NC(=O)[C@@H](N)Cc1ccc(F)cc1)C(=O)O` [H-p-F-Phe-H-Gln-OH], the Produced peptide [1, 7] is reported as “tr”.
In the case of `CC(C)(C)[C@H](N)C(=O)N[C@@H](CCC(N)=O)C(=O)O` [H-t-Leu-H-Gln-OH] (H-[Tle]-Gln-OH), the Produced peptide [1, 7] is reported as “tr”.
In the case of L-Ala-L-Ala-L-Gln, the “Peptide formed, enzyme-added lot” value [3] is reported as 1.3 mM and the Produced peptide [4] is reported as 15.2 mM.
